Laboratory results from ChEMBL document CHEMBL1153249, “Conversion of 4-cyanomethyl-pyrazole-3-carboxamides into CB1 antagonists with lowered propensity to pass the blood-brain-barrier” (Bioorg Med Chem Lett, 2010).
In brackets after ≈: the same amount, converted by molar mass. Activity calls are given as the source filed them. No cut-off for these calls is given here.

How the values were obtained:
Mus musculus [1] = test: Reduction in body weight in diet-induced obese mouse at 10 mg/kg, po; format: functional; design: scale not given: the % may be the effect or the level left
[2] = Solubility of the compound; format: physicochemical
Mus musculus [3] = test: Reduction in WIN-55212-induced hypothermia in mouse at 1 mg/kg po pretreated 40 mins prior to WIN-55212 challenge measured after 1 hr; format: functional, organism-based; design: dose 1 mg/kg
[4] = Lipophilicity, log D by chromatography; format: physicochemical
Cannabinoid receptor 1 [5] = biological target: T1, Cannabinoid receptor 1 (Homo sapiens, UniProt P21554); test: Displacement of [3H]CP-55940 from human CB1 receptor expressed in CHO-K1 cells; format: cell-based
[6] = Selectivity for human CB1 receptor over CB2 receptor by GTPgammaS binding assay
[7] = Ratio of drug level in plasma to brain in mouse at 10 mg/kg, po after 6 hrs; format: ADME, organism-based; design: dose 10 mg/kg, route oral; details: in vivo
Cannabinoid receptor 1 [8] = biological target: T1, Cannabinoid receptor 1; format: functional, cell-based, CHO-K1
Description: Antagonist activity at human CB1 receptor expressed in CHO-K1 cells assessed as inhibition of CP-55940-induced GTPgammaS binding

Cannabinoid receptor 1 [9] = biological target: T1, Cannabinoid receptor 1; test: Inverse agonist activity at human CB1 receptor expressed in CHO-K1 cells by GTPgammaS binding assay; format: functional, cell-based
[10] = Oral bioavailability in rat; format: ADME, organism-based; details: in vivo
[11] = Stability in rat microsomes assessed as compound remaining after 30 mins; format: ADME, Microsome; details: read-out: Stability
[12] = Ratio of drug level in plasma to brain in rat at 5 mg/kg, po after 6 hrs; format: ADME, organism-based; design: dose 5 mg/kg, route oral; details: in vivo
[13] = Ratio of drug level in plasma to brain in mouse at 10 mg/kg, po after 3 hrs; format: ADME, organism-based; design: dose 10 mg/kg, route oral; details: in vivo
Cannabinoid receptor 1 [14] = biological target: T1, Cannabinoid receptor 1; test: biochemical; format: cell-based, COS-7
Description: Displacement of [3H]CP-55940 from human CB1 receptor expressed in COS7 cells

[15] = Oral bioavailability in mouse; format: ADME, organism-based; details: in vivo
[16] = Ratio of drug level in plasma to brain in po dosed diet-induced obese mouse after 6 hrs; format: ADME, organism-based; details: in vivo
Mus musculus [17] = test: Reduction in body weight in diet-induced obese mouse at 3 mg/kg, po; format: functional; design: scale not given: the % may be the effect or the level left
Mus musculus [18] = test: Reduction in WIN-55212-induced hypothermia in mouse at 10 mg/kg po pretreated 40 mins prior to WIN-55212 challenge measured after 1 hr; format: functional, organism-based; design: dose 10 mg/kg
[19] = Bioavailability in ip dosed rat; format: ADME, organism-based; details: in vivo
[20] = Ratio of drug level in plasma to brain in rat at 10 mg/kg, ip after 6 hrs; format: ADME, organism-based; design: dose 10 mg/kg, route intraperitoneal; details: in vivo
[21] = Stability in rat microsomes after 30 mins; format: ADME, Microsome; details: 0.5 h
[22] = Stability in mouse microsomes after 30 mins; format: ADME, Microsome; details: 0.5 h

T1 sequence (P21554 whole entry): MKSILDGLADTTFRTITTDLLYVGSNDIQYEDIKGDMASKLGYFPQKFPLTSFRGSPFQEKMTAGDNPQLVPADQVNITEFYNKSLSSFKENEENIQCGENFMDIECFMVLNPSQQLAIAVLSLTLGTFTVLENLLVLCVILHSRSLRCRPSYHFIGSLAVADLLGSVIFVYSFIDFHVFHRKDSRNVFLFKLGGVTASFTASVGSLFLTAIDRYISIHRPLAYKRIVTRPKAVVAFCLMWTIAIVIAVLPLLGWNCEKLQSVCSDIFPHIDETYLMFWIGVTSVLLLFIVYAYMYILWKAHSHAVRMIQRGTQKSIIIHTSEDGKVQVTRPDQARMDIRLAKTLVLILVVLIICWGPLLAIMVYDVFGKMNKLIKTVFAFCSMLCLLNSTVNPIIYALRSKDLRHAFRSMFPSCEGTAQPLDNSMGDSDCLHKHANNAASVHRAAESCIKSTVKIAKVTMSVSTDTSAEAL

chromatographic logD [4]	IC50 (Cannabinoid receptor 1 [5]) [nM]	solubility ([2]; read-out: solubility) [µM]	IC50 (Cannabinoid receptor 1 [8]) [nM]	IC50 (Cannabinoid receptor 1 [9]) [nM]	Structure (SMILES)	also measured
					Cc1c(C(=O)NN2CCCCC2)nn(-c2ccc(Cl)cc2Cl)c1-c1ccc(Cl)cc1 [RIMONABANT]	Activity (Mus musculus [1]): 14.5; solubility [2]: 10 µM (≈ 4.64 µg/mL); Activity (Mus musculus [3]): Active
2.3	1.9	400 (≈ 220 µg/mL)	3.6	2	NC(=O)Cc1c(C(=O)N2CCC(O)(c3ccccn3)CC2)nn(-c2ccccc2Cl)c1-c1ccc(Cl)cc1	Selectivity ratio [6]: 1000; Ratio [7]: 10.2
			51		N=C(Cc1c(C(=O)NN2CCOCC2)nn(-c2ccccc2Cl)c1-c1ccc(Cl)cc1)NO	
				1.8	N#CCc1c(C(=O)NN2CCCCC2)nn(-c2ccccc2Cl)c1-c1ccc(Cl)cc1	
			26		N=C(N)Cc1c(C(=O)NN2CCOCC2)nn(-c2ccccc2Cl)c1-c1ccc(Cl)cc1	
			1.9		N=C(N)Cc1c(C(=O)N2CCC(O)(c3ccc(F)cc3)CC2)nn(-c2ccccc2Cl)c1-c1ccc(Cl)cc1	
2.4	0.55	200 (≈ 96.1 µg/mL)	3	1.7	Cc1ccncc1NC(=O)c1nn(-c2ccccc2Cl)c(-c2ccc(Cl)cc2)c1CC(N)=O	bioavailability [10]: 39%; remaining at 0.5 h [11]: 63%; Ratio [12]: 1.2
			21		N=C(Cc1c(C(=O)N2CCC(c3ncccn3)CC2)nn(-c2ccccc2Cl)c1-c1ccc(Cl)cc1)NO	
3.4	0.78	9 (≈ 5.03 µg/mL)	0.23	0.11	N#CC1(c2ccccc2)CCN(C(=O)c2nn(-c3ccccc3Cl)c(-c3ccc(Cl)cc3)c2CC(N)=O)CC1	
			9.7	0.59	N=C(N)Cc1c(C(=O)N2CCC(c3ncccn3)CC2)nn(-c2ccccc2Cl)c1-c1ccc(Cl)cc1	
			1.8	1.3	N=C(Cc1c(C(=O)NN2CCCCC2)nn(-c2ccccc2Cl)c1-c1ccc(Cl)cc1)NO	Ratio [13]: 1.2
			0.54		N=C(Cc1c(C(=O)N2CCC(c3ccccc3F)CC2)nn(-c2ccccc2Cl)c1-c1ccc(Cl)cc1)NO	
1.5	23	425 (≈ 246 µg/mL)	16	10	NC(=O)Cc1c(C(=O)N2CCC(C(=O)O)(c3ccccn3)CC2)nn(-c2ccccc2Cl)c1-c1ccc(Cl)cc1	
2.9		16 (≈ 8.18 µg/mL)	0.66	0.49	N#CN1CCC(CNC(=O)c2nn(-c3ccccc3Cl)c(-c3ccc(Cl)cc3)c2CC(N)=O)CC1	IC50 (Cannabinoid receptor 1 [14]): 0.34 nM
			1.2	0.79	N=C(N)Cc1c(C(=O)NCc2ccc(F)cc2)nn(-c2ccccc2Cl)c1-c1ccc(Cl)cc1	
2.8	4.6		1.2	1.4	N#Cc1ccc(N2CCN(C(=O)c3nn(-c4ccccc4Cl)c(-c4ccc(Cl)cc4)c3CC(N)=O)CC2)nc1	
			3.8		N#CCc1c(C(=O)N2CCC(c3ncccn3)CC2)nn(-c2ccccc2Cl)c1-c1ccc(Cl)cc1	
2.8	2.6	75 (≈ 42.6 µg/mL)	0.19	0.1	NC(=O)Cc1c(C(=O)N2CCC(O)(c3ccc(F)cc3)CC2)nn(-c2ccccc2Cl)c1-c1ccc(Cl)cc1	bioavailability [15]: 100%; Ratio [16]: 13; Selectivity ratio [6]: 1000; Activity (Mus musculus [1]): 15.1%; Ratio [7]: 10.2; Activity (Mus musculus [17]): 5.6%; bioavailability [10]: 70%; Activity (Mus musculus [18]): inactive
2.7		105 (≈ 57.7 µg/mL)	0.26	0.11	NC(=O)Cc1c(C(=O)N2CCC(O)(c3ccccc3)CC2)nn(-c2ccccc2Cl)c1-c1ccc(Cl)cc1	IC50 (Cannabinoid receptor 1 [14]): 2.9 nM
			0.93	0.4	N=C(N)Cc1c(C(=O)NN2CCCCC2)nn(-c2ccccc2Cl)c1-c1ccc(Cl)cc1	
1.6		500 (≈ 298 µg/mL)	30		NC(=O)Cc1c(C(=O)N2CCC(C(=O)O)(c3ccc(F)cn3)CC2)nn(-c2ccccc2Cl)c1-c1ccc(Cl)cc1	bioavailability [15]: 4%
2.6	1.8	4.5 (≈ 2.13 µg/mL)	1.4	0.82	NC(=O)Cc1c(C(=O)NN2CCCCC2)nn(-c2ccccc2Cl)c1-c1ccc(Cl)cc1	bioavailability [10]: 2%; remaining at 0.5 h [11]: 72%
2.3	3.7	80 (≈ 43.2 µg/mL)		1.2	NC(=O)Cc1c(C(=O)NC2CCN(C(=O)C3CC3)CC2)nn(-c2ccccc2Cl)c1-c1ccc(Cl)cc1	Ratio [7]: 6.1
			0.51		NC(=O)Cc1c(C(=O)N2CCC(c3ccccc3F)CC2)nn(-c2ccccc2Cl)c1-c1ccc(Cl)cc1	
1.8	7.9		7	1.7	NC(=O)Cc1c(C(=O)NN2CCOCC2)nn(-c2ccccc2Cl)c1-c1ccc(Cl)cc1	
2.5		290 (≈ 165 µg/mL)		2.1	NC(=O)Cc1c(C(=O)N2CCC(O)(c3ccc(F)cn3)CC2)nn(-c2ccccc2Cl)c1-c1ccc(Cl)cc1	IC50 (Cannabinoid receptor 1 [14]): 5.5 nM
			1.1		N=C(Cc1c(C(=O)Nc2ccc(F)cc2)nn(-c2ccccc2Cl)c1-c1ccc(Cl)cc1)NO	
2.6	1.4	1.1 (≈ 0.589 µg/mL)	0.71	0.3	NC(=O)Cc1c(C(=O)N2CCC(c3ncccn3)CC2)nn(-c2ccccc2Cl)c1-c1ccc(Cl)cc1	
			1.5		N=C(N)Cc1c(C(=O)Nc2ccc(F)cc2)nn(-c2ccccc2Cl)c1-c1ccc(Cl)cc1	bioavailability [19]: 19%; Ratio [20]: 3.2; Stability [21]: Stable; Stability [22]: Stable
